How the values were obtained:
[1] = target: T1, DCAMKL3 (Homo sapiens, UniProt Q9C098); experiment: KinomeScan; format: binding; settings: read-out: % Control
T1 construct: purchased DiscoveRx (Fremont, CA), KinomeScan service

[2] = target: T2, FLT3(D835H) (Homo sapiens, UniProt P36888, D835H); experiment: KinomeScan; format: binding; settings: read-out: % Control
T2 construct: purchased DiscoveRx (Fremont, CA)

[3] = target: T3, MAP4K3 (Homo sapiens, UniProt Q8IVH8); experiment: KinomeScan; format: binding; settings: read-out: % Control
T3 construct: purchased DiscoveRx (Fremont, CA)

[4] = target: T4, MARK3 (Homo sapiens, UniProt P27448); experiment: KinomeScan; format: binding; settings: read-out: % Control
T4 construct: purchased DiscoveRx (Fremont, CA)

[5] = target: T5, ADRA2A (Homo sapiens, UniProt P08913); experiment: GPCR Profiler; format: cell-based
T5 construct: host or cells: Chem-1 cells with promiscuous Gα15

[6] = target: T6, RIOK3 (Homo sapiens, UniProt O14730); experiment: KinomeScan; format: binding; settings: read-out: % Control
T6 construct: purchased DiscoveRx (Fremont, CA)

[7] = target: T7, LATS1 (Homo sapiens, UniProt O95835); experiment: KinomeScan; format: binding; settings: read-out: % Control
T7 construct: purchased DiscoveRx

[8] = target: T8, CCR10 (Homo sapiens, UniProt P46092); experiment: GPCR Profiler; format: cell-based
T8 construct: host or cells: Chem-1 cells with Gα15

[9] = target: T9, CCR5 (Macaca mulatta, UniProt P61813); experiment: GPCR Profiler; format: cell-based
T9 construct: host or cells: Chem-1 cells with Gα15

[10] = target: T10, BMX (Homo sapiens, UniProt P51813); experiment: KinomeScan; format: binding; settings: read-out: % Control
T10 construct: purchased DiscoveRx (Fremont, CA)

[11] = target: CDKL5 (Homo sapiens, UniProt O76039); experiment: KinomeScan; format: binding; settings: read-out: % Control
[12] = target: T11, GRK1 (Homo sapiens, UniProt Q15835); experiment: KinomeScan; format: binding; settings: read-out: % Control
T11 construct: purchased DiscoveRx (Fremont, CA)

[13] = target: T12, CCR9 (Homo sapiens, UniProt P51686); experiment: GPCR Profiler; format: cell-based
T12 construct: host or cells: Chem-1 cells with Gα15

[14] = target: T13, BB1 (Homo sapiens, UniProt P28336); experiment: GPCR Profiler; format: cell-based
T13 construct: host or cells: Chem-1 cells with promiscuous Gα15

[15] = target: T14, CXCR3 (Homo sapiens, UniProt P49682); experiment: GPCR Profiler; format: cell-based
T14 construct: host or cells: Chem-1 cells with Gα15

[16] = target: T15, WEE1 (Homo sapiens, UniProt P30291); experiment: KinomeScan; format: binding; settings: read-out: % Control
T15 construct: purchased DiscoveRx

[17] = target: T16, SRPK1 (Homo sapiens, UniProt Q96SB4); experiment: KinomeScan; format: binding; settings: read-out: % Control
T16 construct: purchased DiscoveRx (Fremont, CA)

[18] = system: HT-1080; experiment: Cell Titer-Glo viability, Fibrosarcoma; format: cell-based
Procedure: OGM2 kills wide variety of cancer cell types. Cell sensitivity can be classified in to Very Sensitive (LC50<2 μM), Sensitive (LC50=2 to 10 μM), Mildly Sensitive (LC50>10 μM), and Refractory (no killing at 10 μM). The listed established cell were incubated with OGM2 at 2 μM or 10 μM for 72 hours under standard cell culture conditions, and relative cell number was assessed using Cell Titer-Glo Luminescent Cell Viability Assay (Promega™) following the manufacturer's instructions. Luminescence was determined using a Cytation 5 reader and Gen5 software package (BioTek™).
Cancer cells, which are very sensitive to killing by OGM2 (LCs <2 μM), with reported mRNA expression of GPR68 and the related proton sensing receptor GPR4. LC50's (concentrations causing 50% lethality) were determined using CellTiter-Glo (Promega™, G7570). Cells were plated in 12-well plates (CELLTREAT Scientific Products, 229112) in 1 ml of DMEM with high glucose, GlutaMAX, HEPES, or RPMI 1640 with Penicillin-Streptomycin (ThermoFisher™, 10564029, 11875119 and 15140122) and 10% FBS. Cells were incubated overnight at 37° C. in 5% CO2. Then 1 mL of fresh media was added with DMSO, OGM, or positive control (Erastin; APExBIO Technology, LLC, B1524) and cells incubated for 3 days. On the third day, all media was removed, cells were rinsed with 1×PBS, PBS was removed, and 200 μL of 1× Passive Lysis Buffer (Promega™, E1941) was added to each well. […]. Subsequently, 20 μL of lysate was added to 100 μL CellTiter-Glo™ reagent on a LUMITRAC 200 plate (Greiner™ bio-one, 82050-726). Plates were briefly spun down and read on a GloMax-Multi Detection System (Promega™).
The cells listed in the tables above were incubated with OGM2 at 2 μM or 10 μM for 72 hours under standard cell culture conditions, and relative cell number was assessed using Cell Titer-Glo Luminescent Cell Viability Assay (Promega™) following the manufacturer's instructions. Luminescence was determined using a Cytation 5 reader and Gen5 software package (BioTek™). RNA expression of GPR68 and GPR4 in the corresponding cancer cell lines are listed, according to the publicly available The Human Protein Atlas version 22.0 and Ensembl version 103.38 (see proteinatlas.org). The consensus normalized expression value (“nTPM”=normalize transcript per million) was calculated as the maximum nTPM value for each gene in the two data sources.

[19] = system: patient derived GBM lines; experiment: qPCR of ferroptosis markers; format: cell-based, human; settings: 3 days
Source text: cDNAs were generated using High-Capacity cDNA Reverse Transcription Kit with RNase Inhibitor (ThermoFisher, […]). Samples were run on a Quant Studio 5 real-time PCR system (Applied Biosystems™) with TaqMan™ Universal Master Mix II, with UNG (ThermoFisher, 4440042). Primers used were GAPDH: Hs02786624g1, GPR68: Hs00268858s1, ATF4: Hs00909569_g1, CHAC1: Hs00225520_m1, SLC7A11: Hs00921938_m1, HMOX1: Hs01110250_m1, TFRC: Hs00951083_m1.
Separate biological replicates of pdx and neurosphere cells treated with OGM for 3 days were generated. RNA was isolated, cDNA generated and qPCR was conducted on select key markers of ferroptosis (ATF4. CHAC1, HMOX1, TFRC, and SLC7A11) that were seen as dysregulated in RNAseq.

T14 sequence (P49682 whole entry, species assumed): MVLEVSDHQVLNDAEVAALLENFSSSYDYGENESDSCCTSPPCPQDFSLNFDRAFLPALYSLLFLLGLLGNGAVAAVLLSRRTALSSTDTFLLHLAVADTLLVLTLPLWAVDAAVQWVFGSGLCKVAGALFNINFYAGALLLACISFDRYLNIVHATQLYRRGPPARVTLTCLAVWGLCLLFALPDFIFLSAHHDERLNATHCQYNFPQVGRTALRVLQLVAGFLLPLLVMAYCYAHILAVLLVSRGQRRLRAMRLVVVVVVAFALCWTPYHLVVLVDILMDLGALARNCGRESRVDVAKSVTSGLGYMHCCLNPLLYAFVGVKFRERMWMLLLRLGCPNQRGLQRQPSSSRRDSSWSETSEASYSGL
T13 sequence (P28336 whole entry): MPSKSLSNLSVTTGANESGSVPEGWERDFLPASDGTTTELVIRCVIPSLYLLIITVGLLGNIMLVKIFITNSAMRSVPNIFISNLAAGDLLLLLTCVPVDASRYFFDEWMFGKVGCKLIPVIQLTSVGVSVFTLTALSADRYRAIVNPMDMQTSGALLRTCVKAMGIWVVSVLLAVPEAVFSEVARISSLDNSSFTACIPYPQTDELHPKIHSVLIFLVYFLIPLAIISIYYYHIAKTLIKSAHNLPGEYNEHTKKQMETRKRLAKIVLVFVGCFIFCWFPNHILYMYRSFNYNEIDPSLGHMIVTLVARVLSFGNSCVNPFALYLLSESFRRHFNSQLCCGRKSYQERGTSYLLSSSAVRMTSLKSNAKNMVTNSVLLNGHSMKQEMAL
T5 sequence (P08913 whole entry, species assumed): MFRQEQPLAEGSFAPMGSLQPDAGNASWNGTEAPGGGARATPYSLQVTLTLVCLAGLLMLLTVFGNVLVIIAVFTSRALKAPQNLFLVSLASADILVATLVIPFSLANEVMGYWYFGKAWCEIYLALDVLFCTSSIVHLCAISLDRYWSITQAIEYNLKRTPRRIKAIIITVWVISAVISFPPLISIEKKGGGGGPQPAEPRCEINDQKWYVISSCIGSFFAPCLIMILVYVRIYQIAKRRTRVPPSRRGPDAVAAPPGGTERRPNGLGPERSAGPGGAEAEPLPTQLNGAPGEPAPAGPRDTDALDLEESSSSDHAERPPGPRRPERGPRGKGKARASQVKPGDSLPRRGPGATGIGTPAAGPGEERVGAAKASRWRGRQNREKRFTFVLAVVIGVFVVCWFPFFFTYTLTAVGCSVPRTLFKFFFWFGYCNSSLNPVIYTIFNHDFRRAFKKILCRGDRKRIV
T12 sequence (P51686 whole entry, species assumed): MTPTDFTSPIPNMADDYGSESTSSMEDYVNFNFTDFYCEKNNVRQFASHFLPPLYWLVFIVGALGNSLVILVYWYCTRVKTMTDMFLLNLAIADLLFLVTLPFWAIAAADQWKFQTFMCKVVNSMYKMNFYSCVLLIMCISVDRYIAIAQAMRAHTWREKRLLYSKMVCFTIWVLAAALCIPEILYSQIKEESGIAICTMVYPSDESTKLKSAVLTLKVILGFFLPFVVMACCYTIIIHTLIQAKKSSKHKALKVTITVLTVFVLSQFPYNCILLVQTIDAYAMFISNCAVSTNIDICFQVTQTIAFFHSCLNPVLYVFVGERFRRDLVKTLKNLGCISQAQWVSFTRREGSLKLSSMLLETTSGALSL
T8 sequence (P46092 whole entry): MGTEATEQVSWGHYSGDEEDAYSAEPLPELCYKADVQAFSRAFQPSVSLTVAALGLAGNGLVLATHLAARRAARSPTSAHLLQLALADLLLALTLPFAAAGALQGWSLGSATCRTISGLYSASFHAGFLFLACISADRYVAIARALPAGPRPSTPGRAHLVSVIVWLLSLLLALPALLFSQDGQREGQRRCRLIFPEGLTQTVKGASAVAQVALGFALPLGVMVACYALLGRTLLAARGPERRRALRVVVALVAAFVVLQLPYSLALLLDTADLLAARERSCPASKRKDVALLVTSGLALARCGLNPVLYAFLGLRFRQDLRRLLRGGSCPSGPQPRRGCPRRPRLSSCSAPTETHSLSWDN
T3 sequence (Q8IVH8 whole entry): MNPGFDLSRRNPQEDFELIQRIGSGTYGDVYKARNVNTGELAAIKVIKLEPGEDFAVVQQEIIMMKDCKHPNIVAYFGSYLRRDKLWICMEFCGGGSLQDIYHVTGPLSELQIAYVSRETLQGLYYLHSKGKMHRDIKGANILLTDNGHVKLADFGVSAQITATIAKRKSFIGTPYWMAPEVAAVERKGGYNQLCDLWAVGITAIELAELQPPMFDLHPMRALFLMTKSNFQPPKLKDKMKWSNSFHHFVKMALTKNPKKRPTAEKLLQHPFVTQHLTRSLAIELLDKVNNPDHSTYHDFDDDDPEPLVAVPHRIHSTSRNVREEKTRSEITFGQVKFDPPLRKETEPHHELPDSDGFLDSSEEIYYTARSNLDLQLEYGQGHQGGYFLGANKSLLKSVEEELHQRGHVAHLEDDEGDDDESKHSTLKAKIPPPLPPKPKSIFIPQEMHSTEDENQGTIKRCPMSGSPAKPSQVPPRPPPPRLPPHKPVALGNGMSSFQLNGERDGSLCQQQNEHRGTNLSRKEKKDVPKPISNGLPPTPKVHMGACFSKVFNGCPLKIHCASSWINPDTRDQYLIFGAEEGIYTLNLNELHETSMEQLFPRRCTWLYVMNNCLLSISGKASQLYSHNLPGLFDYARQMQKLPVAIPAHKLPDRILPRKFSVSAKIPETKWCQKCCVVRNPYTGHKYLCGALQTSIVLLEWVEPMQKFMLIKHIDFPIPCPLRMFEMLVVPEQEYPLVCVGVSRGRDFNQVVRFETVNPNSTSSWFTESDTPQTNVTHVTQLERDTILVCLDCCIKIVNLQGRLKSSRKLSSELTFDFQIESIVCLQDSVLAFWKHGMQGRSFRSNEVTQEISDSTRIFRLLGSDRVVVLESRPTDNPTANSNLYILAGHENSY
T1 sequence (Q9C098 whole entry): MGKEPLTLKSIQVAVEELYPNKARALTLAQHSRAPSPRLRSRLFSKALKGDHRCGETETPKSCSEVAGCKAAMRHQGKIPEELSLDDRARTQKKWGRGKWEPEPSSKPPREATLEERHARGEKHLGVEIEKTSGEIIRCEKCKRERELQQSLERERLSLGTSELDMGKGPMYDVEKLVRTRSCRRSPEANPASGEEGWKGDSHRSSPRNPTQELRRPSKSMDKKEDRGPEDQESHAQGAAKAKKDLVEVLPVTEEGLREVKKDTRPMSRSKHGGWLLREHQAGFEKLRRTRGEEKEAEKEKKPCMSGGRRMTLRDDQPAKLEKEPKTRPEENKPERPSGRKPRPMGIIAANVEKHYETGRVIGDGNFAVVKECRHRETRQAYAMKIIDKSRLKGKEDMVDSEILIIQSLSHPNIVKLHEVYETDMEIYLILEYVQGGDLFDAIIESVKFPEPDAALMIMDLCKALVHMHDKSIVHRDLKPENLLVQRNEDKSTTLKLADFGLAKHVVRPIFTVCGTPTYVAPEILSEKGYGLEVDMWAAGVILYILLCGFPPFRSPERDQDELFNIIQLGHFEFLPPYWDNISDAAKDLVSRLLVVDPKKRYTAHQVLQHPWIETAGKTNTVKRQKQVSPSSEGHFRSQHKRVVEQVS
T7 sequence (O95835 whole entry): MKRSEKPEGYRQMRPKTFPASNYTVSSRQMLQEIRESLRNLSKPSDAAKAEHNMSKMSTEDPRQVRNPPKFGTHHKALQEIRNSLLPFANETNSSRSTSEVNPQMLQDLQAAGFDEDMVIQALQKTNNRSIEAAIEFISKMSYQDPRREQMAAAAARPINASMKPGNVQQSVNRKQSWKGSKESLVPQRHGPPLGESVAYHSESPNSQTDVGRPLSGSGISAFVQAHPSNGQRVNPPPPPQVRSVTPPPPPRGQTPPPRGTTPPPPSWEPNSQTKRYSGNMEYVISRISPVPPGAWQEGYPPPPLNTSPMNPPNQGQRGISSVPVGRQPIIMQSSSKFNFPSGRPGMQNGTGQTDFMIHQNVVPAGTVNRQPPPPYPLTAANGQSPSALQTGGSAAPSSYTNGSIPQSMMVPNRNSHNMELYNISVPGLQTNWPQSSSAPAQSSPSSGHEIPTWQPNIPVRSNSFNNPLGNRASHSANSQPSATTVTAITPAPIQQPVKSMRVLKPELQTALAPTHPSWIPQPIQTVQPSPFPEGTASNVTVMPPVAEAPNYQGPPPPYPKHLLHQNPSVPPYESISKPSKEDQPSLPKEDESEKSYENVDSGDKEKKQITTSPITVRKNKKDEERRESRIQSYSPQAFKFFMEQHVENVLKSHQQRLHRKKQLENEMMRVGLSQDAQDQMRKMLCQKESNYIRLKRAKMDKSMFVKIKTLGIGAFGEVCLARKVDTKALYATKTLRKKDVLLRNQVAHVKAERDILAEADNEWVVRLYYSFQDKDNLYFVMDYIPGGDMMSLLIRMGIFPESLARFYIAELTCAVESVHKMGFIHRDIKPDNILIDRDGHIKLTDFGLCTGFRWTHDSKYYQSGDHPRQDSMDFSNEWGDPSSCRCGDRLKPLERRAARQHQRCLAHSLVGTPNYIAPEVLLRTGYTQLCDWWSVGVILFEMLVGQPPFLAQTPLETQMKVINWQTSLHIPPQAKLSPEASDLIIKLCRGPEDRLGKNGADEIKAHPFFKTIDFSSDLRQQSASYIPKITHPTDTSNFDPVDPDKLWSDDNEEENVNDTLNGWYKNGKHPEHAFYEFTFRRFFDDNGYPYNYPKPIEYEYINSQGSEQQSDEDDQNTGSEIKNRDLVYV

CCc1ccc2c(c1)C1(NN=C(c3cccc4ccccc34)S1)C(=O)N2 (stereo not shown) [OGM1, 5-ethyl-5′-naphthalen-1-ylspiro[1H-indole-3,2′-3H-1,3,4-thiadiazole]-2-one]
remaining binding at 10 µM [1]: 100%
remaining binding at 10 µM [2]: 100%
remaining binding at 10 µM [3]: 100%
remaining binding at 10 µM [4]: 100%
Antagonism ([5]; 10 uM): −5.1
Agonism ([5]; 12.5 uM): 0.1
remaining binding at 10 µM [6]: 100%
remaining binding at 10 µM [7]: 100%
Antagonism ([8]; 10 uM): −16.7
Agonism ([8]; 12.5 uM): −0.2
Antagonism ([9]; 10 uM): 15.8
Agonism ([9]; 12.5 uM): 2.5
remaining binding at 10 µM [10]: 100%
remaining binding at 10 µM [11]: 85%
remaining binding at 10 µM [12]: 100%
Antagonism ([13]; 10 uM): 0.6
Agonism ([13]; 12.5 uM): 0.4
Antagonism ([14]; 10 uM): 3.5
Agonism ([14]; 12.5 uM): −0.2
Antagonism ([15]; 10 uM): −2
Agonism ([15]; 12.5 uM): 0.1
remaining binding at 10 µM [16]: 100%
remaining binding at 10 µM [17]: 77%

CCc1ccc2c(c1)C1(NN=C(c3ccccc3)S1)C(=O)N2 (stereo not shown) [OGM2]
Class [18]: Sensitive (Sensitive (LC50=2 to 10 μM))
% Survival 2 μM OGM ([18]; 72 hours): 64.2%
% Survival 10 μM OGM ([18]; 72 hours): 21.4%
CC50 ([18]; Homo sapiens, HT-1080, 72 hours, read-out: LC50 (the source's name)): 2 to 10 µM
expression of ATF4, CHAC1, HMOX1, TFRC, SLC7A11 [19]: induced key markers of ferroptosis

Reference: patent US20240327364A1, “THERAPEUTIC TARGETING OF GPR68 TO INDUCE FERROPTOSIS” (University Of Maryland, Baltimore, priority 2023, published 2024)
